Assay results taken from ChEMBL document CHEMBL1131740, “N-substituted 4-(5-indolyl)benzoic acids. Synthesis and evaluation of steroid 5alpha-reductase type I and II inhibitory activity” (Bioorg Med Chem Lett, 1999).
Calls of active or inactive are those of the source. No cut-off for these calls is given here.

Columns and labels:
[1] = target: T1, 3-oxo-5-alpha-steroid 4-dehydrogenase 1 (Homo sapiens) (UniProt P18405); experiment: (§1) Inhibition against human Steroid 5-alpha-reductase type I in DU 145 cell culture at 10 uM concentration using 3H androstenedione 5 nM as substrate; assay type: cell-based
T1 sequence (whole entry): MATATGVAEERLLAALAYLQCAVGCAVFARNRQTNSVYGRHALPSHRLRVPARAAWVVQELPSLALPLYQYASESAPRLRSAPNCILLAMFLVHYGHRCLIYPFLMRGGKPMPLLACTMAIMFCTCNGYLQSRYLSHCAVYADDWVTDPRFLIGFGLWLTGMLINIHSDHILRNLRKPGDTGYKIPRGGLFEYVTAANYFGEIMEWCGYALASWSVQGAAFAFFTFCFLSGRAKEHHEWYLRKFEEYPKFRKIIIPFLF

[2] = target: T2, 3-oxo-5-alpha-steroid 4-dehydrogenase 2 (Homo sapiens) (UniProt P31213); experiment: Inhibition against human Steroid 5-alpha-reductase type 2 at 10 uM concentration using 18213 3H testosterone 210 nM as substrate
T2 sequence (whole entry): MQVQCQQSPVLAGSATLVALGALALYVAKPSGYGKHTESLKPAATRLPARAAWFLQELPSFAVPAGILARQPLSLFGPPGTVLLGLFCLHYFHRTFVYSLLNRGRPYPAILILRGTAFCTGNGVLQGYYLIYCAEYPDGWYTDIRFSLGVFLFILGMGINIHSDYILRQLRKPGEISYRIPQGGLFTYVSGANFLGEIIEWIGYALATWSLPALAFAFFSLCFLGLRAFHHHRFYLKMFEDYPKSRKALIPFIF

[3] = target: T3, 3-oxo-5-alpha-steroid 4-dehydrogenase 1 (Homo sapiens, UniProt P18405); experiment: Inhibitory concentration against human Steroid 5-alpha-reductase type I in DU 145 cell culture using 3H androstenedione 5 nM as substrate; assay type: cell-based
T3 sequence (P18405 whole entry): T1 sequence (whole entry)

[4] = target: T4, 3-oxo-5-alpha-steroid 4-dehydrogenase 1 (Rattus norvegicus) (UniProt P24008); experiment: Inhibition against rat Steroid 5-alpha-reductase type I at 10 uM concentration using 18213 3H testosterone 210 nM as substrate
T4 sequence (whole entry): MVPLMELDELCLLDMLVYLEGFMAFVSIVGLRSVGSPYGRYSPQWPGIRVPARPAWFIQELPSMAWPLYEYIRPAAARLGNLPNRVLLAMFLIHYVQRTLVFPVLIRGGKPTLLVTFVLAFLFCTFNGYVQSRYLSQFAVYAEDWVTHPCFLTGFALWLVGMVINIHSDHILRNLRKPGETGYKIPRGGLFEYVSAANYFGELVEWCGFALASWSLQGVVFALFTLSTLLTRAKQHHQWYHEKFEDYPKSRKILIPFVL

[5] = target: T1, 3-oxo-5-alpha-steroid 4-dehydrogenase 1 (Homo sapiens); experiment: as §1
[6] = target: T2, 3-oxo-5-alpha-steroid 4-dehydrogenase 2 (Homo sapiens); experiment: Inhibition against human 5-alpha-reductase type 2 at 10 uM concentration using 18213 3H testosterone 210 nM as substrate
[7] = target: T5, 3-oxo-5-alpha-steroid 4-dehydrogenase 2 (Homo sapiens, UniProt P31213); experiment: Inhibitory activity against human 5-alpha-reductase type 2 using 18213 3H testosterone 210 nM as substrate
T5 sequence (P31213 whole entry): T2 sequence (whole entry)

[8] = target: T2, 3-oxo-5-alpha-steroid 4-dehydrogenase 2 (Homo sapiens); experiment: Percentage inhibition against human Steroid 5-alpha-reductase type 2 at 10 uM concentration using 18213 3H testosterone 210 nM as substrate
[9] = target: T4, 3-oxo-5-alpha-steroid 4-dehydrogenase 1 (Rattus norvegicus); experiment: Inhibition against rat Steroid 5-alpha-reductase type I at 10 uM concentration using 18213 3H testosterone 210 nM as substrate; No inhibition
[10] = target: T1, 3-oxo-5-alpha-steroid 4-dehydrogenase 1 (Homo sapiens); experiment: Inhibition against human 5-alpha-reductase type 1 Steroid 5-alpha-reductase type I culture at 10 uM concentration using 3H androstenedione 5 nM as substrate
[11] = target: T6, 3-oxo-5-alpha-steroid 4-dehydrogenase 1 (Rattus norvegicus, UniProt P24008); experiment: Inhibition against rat Steroid 5-alpha-reductase type I at 10 uM concentration using 18213 3H testosterone 210 nM as substrate: No inhibition
T6 sequence (P24008 whole entry): T4 sequence (whole entry)

[12] = target: T5, 3-oxo-5-alpha-steroid 4-dehydrogenase 2; experiment: Inhibitory activity against human Steroid 5-alpha-reductase type 2 using 18213 3H testosterone 210 nM as substrate
[13] = target: T6, 3-oxo-5-alpha-steroid 4-dehydrogenase 1; experiment: Inhibitory activity against rat Steroid 5-alpha-reductase type I using 18213 3H testosterone 210 nM as substrate

Row | Structure (SMILES) | inhibition [1] | inhibition [2] | IC50 [3] | inhibition [4] | also measured
1 | CCCC(CCC)n1ccc2cc(-c3ccc(C(=O)O)cc3)ccc21 | 75% | 10% | 3200 nM | 43% | 
2 | O=C(O)c1ccc(-c2ccc3c(ccn3Cc3ccccc3)c2)cc1 |  |  |  | 12% | inhibition [5]: 67%; inhibition [6]: 60%; IC50 [7]: 6200 nM
3 | O=C(O)c1ccc(-c2ccc3c(ccn3C3CCCCC3)c2)cc1 |  |  |  |  | inhibition [8]: 36%; inhibition [9]: inactive
4 | CCCCn1ccc2cc(-c3ccc(C(=O)O)cc3)ccc21 | 72% | 24% |  | 17% | 
5 | O=C(O)c1ccc(-c2ccc3c(ccn3CC3CCCCC3)c2)cc1 |  |  | 2100 nM |  | inhibition [10]: 81%; IC50 [11]: Not Active; inhibition [8]: 50%
6 | O=C(O)c1ccc(-c2ccc3c(ccn3C(c3ccccc3)c3ccccc3)c2)cc1 | 81% | 40% | 2780 nM | 26% | 
7 | CC(C)(C)NC(=O)[C@H]1CC[C@H]2[C@@H]3CC=C4C=C(C(=O)O)CC[C@]4(C)[C@H]3CC[C@]12C [EPRISTERIDE] |  |  | 1100 nM |  | IC50 [12]: 3 nM; IC50 [13]: 45 nM
